Holding throughout (type): in vivo
For assay [1], the system named is Echinochloa crus-galli (ECHCG). The assay is described as follows: Pre-emergence herbicidal activity, glasshouse pot test. The settings on record: Echinochloa crus-galli, 480 h, rate 500 g/ha, evaluated after 20 days, read-out: Pre-emergence activity, ECHCG (100=total damage to plant; 0=no damage to plant). In short, it runs like this: (§1)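 Visual damage score 0–100 (100 = plant totally killed), taken 20 days after treatment. Spray was applied to pots of sterilised standard soil one day post-sowing, using an aqueous solution of compound in acetone and a surfactant/solvent blend (Emulsogen EL, NMP, DPGME, X-77).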

The test system of assay [2] is Alopecurus myosuroides (ALOMY). Described as above. The settings on record: Alopecurus myosuroides, 480 h, rate 500 g/ha, evaluated after 20 days, read-out: Pre-emergence activity, ALOMY (100=total damage to plant; 0=no damage to plant). In short, it runs like this: as §1
In assay [3] the test system is Lolium perenne (LOLPE). The assay is described as above. To be noted: Lolium perenne, 480 h, rate 500 g/ha, evaluated after 20 days, read-out: Pre-emergence activity, LOLPE (100=total damage to plant; 0=no damage to plant). The essentials: as §1
Assay [4] has as its system Avena fatua (AVEFA). The description is as above. The settings on record: Avena fatua, 480 h, rate 500 g/ha, evaluated after 20 days, read-out: Pre-emergence activity, AVEFA (100=total damage to plant; 0=no damage to plant). The essentials:
as §1

The test system of assay [5] is Setaria faberi (SETFA). The description is as above. To be noted: Setaria faberi, 480 h, rate 500 g/ha, evaluated after 20 days, read-out: Pre-emergence activity, SETFA (100=total damage to plant; 0=no damage to plant). In short, it runs like this: as §1
Assay [6] has as its system Digitaria sanguinalis (DIGSA). The assay is described as above. To be noted: Digitaria sanguinalis, 480 h, rate 500 g/ha, evaluated after 20 days, read-out: Pre-emergence activity, DIGSA (100=total damage to plant; 0=no damage to plant). In short, it runs like this: as §1
The subject of assay [7] is Echinochloa crus-galli (ECHCG). Nature of the assay: Post-emergence herbicidal activity, glasshouse pot test. To be noted: Echinochloa crus-galli, rate 125 g/ha, evaluated after 14 or 15 days, read-out: Post-emergence activity, ECHCG (100=total damage to plant; 0=no damage to plant). The essentials: (§2)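 Visual damage ratings on a 0–100 scale (100 = plant killed) were taken 14 or 15 days after treatment. Seedlings had been raised for 10 days in sterilised soil in a glasshouse before spraying with an aqueous solution of the formulated active ingredient.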

Assay [8] deals with Alopecurus myosuroides (ALOMY). The assay is described as above. The settings on record: Alopecurus myosuroides, rate 125 g/ha, evaluated after 14 or 15 days, read-out: Post-emergence activity, ALOMY (100=total damage to plant; 0=no damage to plant). The essentials:
as §2

For assay [9], the system named is Lolium perenne (LOLPE). Described as above. To be noted: Lolium perenne, rate 125 g/ha, evaluated after 14 or 15 days, read-out: Post-emergence activity, LOLPE (100=total damage to plant; 0=no damage to plant). In short, it runs like this: as §2
Assay [10] concerns Avena fatua (AVEFA). Described as above. To be noted: Avena fatua, rate 125 g/ha, evaluated after 14 or 15 days, read-out: Post-emergence activity, AVEFA (100=total damage to plant; 0=no damage to plant). The essentials:
as §2

For assay [11], the system named is Setaria faberi (SETFA). The assay is described as above. The settings on record: Setaria faberi, rate 125 g/ha, evaluated after 14 or 15 days, read-out: Post-emergence activity, SETFA (100=total damage to plant; 0=no damage to plant). The essentials:
as §2

Assay [12] has as its system Digitaria sanguinalis (DIGSA). The description is as above. The settings on record: Digitaria sanguinalis, rate 125 g/ha, evaluated after 14 or 15 days, read-out: Post-emergence activity, DIGSA (100=total damage to plant; 0=no damage to plant). The essentials: as §2

Take `CCc1cc(C)cc(CC)c1C1=C(OC)CC2(CCOCC2)CC1=O` [Compound P32]: the pest or weed control at 500 g/ha in [1] amounted to 20%; in [2] it was 100%; in the assay with Lolium perenne (LOLPE) [3] it was 100%; in the assay with Avena fatua (AVEFA) [4] it was 100%; with Setaria faberi (SETFA) [5], 10%; in assay [6], 50%. In addition, the pest or weed control at 125 g/ha came to 0% in assay [7]; 20% in assay [8]; 0% in the assay with Lolium perenne (LOLPE) [9]; 0% in the assay with Avena fatua (AVEFA) [10]; 0% in the assay on Setaria faberi (SETFA) [11]; 0% in [12].
On to `CCOC1=C(c2c(CC)cc(C)cc2CC)C(=O)CC2(CCOCC2)C1` [Compound P33], for which the pest or weed control at 500 g/ha in [1] came to 10%; in assay [2] it was 90%; in the assay on Lolium perenne (LOLPE) [3], 50%; in the assay on Avena fatua (AVEFA) [4], 30%; in the assay on Setaria faberi (SETFA) [5] it was 10%; in assay [6] it was 70%. Moreover, the pest or weed control at 125 g/ha in [7] amounted to 0%; in assay [8], 20%; in the assay on Lolium perenne (LOLPE) [9], 0%; with Avena fatua (AVEFA) [10], 0%; in the assay with Setaria faberi (SETFA) [11], 0%; in [12] it was 30%.
On to `CCCCCCCCCCCC(=O)OC1=C(c2c(CC)cc(C)cc2CC)C(=O)CC2(CCOCC2)C1` [Compound P44], for which the pest or weed control at 500 g/ha (in assay [1]; in assay [2]; with Lolium perenne (LOLPE) [3]; in the assay with Avena fatua (AVEFA) [4]; in the assay on Setaria faberi (SETFA) [5]; in assay [6]) was 100% in each case. For the same compound, the pest or weed control at 125 g/ha in [7] stood at 90%; in assay [8], 80%; with Lolium perenne (LOLPE) [9], 90%; in the assay with Avena fatua (AVEFA) [10] it was 90%; in the assay on Setaria faberi (SETFA) [11], 90%; in assay [12] it was 100%.
Regarding `CCCCCCCCCCCCCCCC(=O)OC1=C(c2c(CC)cc(C)cc2CC)C(=O)CC2(CCOCC2)C1` [Compound P45], the pest or weed control at 500 g/ha in [1] stood at 100%; in assay [2], 80%; in the assay with Lolium perenne (LOLPE) [3] it was 100%; in the assay on Avena fatua (AVEFA) [4], 100%; in the assay with Setaria faberi (SETFA) [5], 100%; in [6], 100%. Further, the pest or weed control at 125 g/ha was 10% in assay [7]; 30% in assay [8]; 0% with Lolium perenne (LOLPE) [9]; 60% in the assay with Avena fatua (AVEFA) [10]; 10% in the assay on Setaria faberi (SETFA) [11]; 20% in assay [12].
Consider `CCc1cc(C)cc(CC)c1C1=C(OC(=O)CCCCCCC(=O)OC)CC2(CCOCC2)CC1=O` [Compound P46], for which the pest or weed control at 500 g/ha (in assay [1]; in [2]; in the assay with Lolium perenne (LOLPE) [3]; with Avena fatua (AVEFA) [4]; in the assay on Setaria faberi (SETFA) [5]; in [6]) was 100% in each case. Besides, the pest or weed control at 125 g/ha was determined as 100% in assay [7]; 90% in assay [8]; 90% with Lolium perenne (LOLPE) [9]; 100% in the assay on Avena fatua (AVEFA) [10]; 90% with Setaria faberi (SETFA) [11]; 90% in assay [12].

For the origin of these results see patent US8084649B2, “Herbicides” (Syngenta Crop Protection, inc., priority 2007, dated 2011).
